In patent publication US20250152585A1, “PHARMACEUTICAL COMPOUND” (Duke Street Bio Limited, priority 2022, published 2025):
Like-named read-outs stand apart in the source and are kept apart here.

Tests used:
[1] = target: T1, N-terminally FLAG-tagged PARP2 (amino acids 1-583) (Homo sapiens, UniProt Q9UGN5); assay: PARP2 probe displacement HTRF assay; format: binding; conditions: binned Kd
T1 construct: N-terminally FLAG-tagged PARP2 (amino acids 1-583)
Description: Data analysis was performed identical as for PARP1.

[2] = target: T2, full length N-terminally FLAG-tagged PARP1 (Homo sapiens, UniProt P09874); assay: PARP1 probe displacement HTRF assay; conditions: for Selectivity: PARP1 over PARP2, ratio Kd (PARP2)/Kd (PARP1); for Kd: read-out: PARP1 HTRF, binned Kd
[3] = target: T2, full length N-terminally FLAG-tagged PARP1; assay: PARP1 biochemical DELFIA assay (auto-PARylation); parameters: recombinant full length human N-terminally FLAG-tagged PARP1
[4] = binned IC50, PARP1 biochemical DELFIA assay
[5] = binned IC50, biochemical auto-PARylation assay

T1 sequence (Q9UGN5 whole entry, the tested form may be a part): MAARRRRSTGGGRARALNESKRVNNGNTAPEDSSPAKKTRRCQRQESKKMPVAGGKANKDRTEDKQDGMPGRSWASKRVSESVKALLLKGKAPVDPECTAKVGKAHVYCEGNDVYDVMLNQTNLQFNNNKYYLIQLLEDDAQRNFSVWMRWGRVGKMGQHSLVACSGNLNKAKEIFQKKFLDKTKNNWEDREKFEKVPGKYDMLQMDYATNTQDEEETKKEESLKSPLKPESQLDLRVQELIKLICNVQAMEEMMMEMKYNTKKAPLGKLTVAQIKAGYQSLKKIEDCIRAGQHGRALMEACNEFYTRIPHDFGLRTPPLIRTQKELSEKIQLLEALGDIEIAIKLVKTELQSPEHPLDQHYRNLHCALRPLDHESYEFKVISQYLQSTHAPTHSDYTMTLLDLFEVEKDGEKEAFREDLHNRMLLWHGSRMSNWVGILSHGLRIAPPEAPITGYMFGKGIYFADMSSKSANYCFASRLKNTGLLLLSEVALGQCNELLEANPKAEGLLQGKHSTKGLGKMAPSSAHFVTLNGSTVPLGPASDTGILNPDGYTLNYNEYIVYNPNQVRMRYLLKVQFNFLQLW
T2 sequence (P09874 whole entry): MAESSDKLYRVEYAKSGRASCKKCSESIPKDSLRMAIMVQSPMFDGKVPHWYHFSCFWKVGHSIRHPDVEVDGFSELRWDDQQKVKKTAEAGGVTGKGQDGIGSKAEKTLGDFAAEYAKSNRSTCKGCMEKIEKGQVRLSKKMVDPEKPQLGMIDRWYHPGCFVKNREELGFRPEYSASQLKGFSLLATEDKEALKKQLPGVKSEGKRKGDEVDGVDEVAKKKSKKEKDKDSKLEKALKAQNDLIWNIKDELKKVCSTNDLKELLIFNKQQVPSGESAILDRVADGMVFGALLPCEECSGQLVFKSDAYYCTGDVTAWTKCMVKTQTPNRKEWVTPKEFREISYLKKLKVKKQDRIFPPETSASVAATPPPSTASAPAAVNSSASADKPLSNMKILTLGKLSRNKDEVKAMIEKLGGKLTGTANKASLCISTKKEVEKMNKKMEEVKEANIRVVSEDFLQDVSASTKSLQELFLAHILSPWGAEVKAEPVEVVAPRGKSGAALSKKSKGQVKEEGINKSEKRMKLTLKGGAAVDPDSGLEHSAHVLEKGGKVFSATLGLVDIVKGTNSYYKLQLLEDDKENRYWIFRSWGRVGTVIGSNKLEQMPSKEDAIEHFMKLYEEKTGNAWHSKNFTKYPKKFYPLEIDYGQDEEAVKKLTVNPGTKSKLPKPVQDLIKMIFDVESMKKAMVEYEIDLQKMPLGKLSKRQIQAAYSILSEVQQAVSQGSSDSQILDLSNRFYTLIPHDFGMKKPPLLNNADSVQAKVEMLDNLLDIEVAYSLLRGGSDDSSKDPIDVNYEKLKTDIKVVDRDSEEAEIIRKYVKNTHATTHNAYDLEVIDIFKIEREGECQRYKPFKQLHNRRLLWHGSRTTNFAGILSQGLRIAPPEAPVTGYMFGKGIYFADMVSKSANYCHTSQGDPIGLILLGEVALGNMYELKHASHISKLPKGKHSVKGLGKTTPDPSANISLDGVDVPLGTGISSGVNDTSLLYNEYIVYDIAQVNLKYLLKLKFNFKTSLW

SMILES	Kd ([1]; PARP2 probe displacement HTRF) [µM]	Selectivity ([2]; probe displacement HTRF)	Kd ([2]; PARP1 probe displacement HTRF) [µM]	IC50 [3, 4] [µM]	Kd ([1]; probe displacement HTRF) [µM]	Kd ([2]; probe displacement HTRF) [µM]	IC50 [3, 5] [µM]
CNC(=O)c1ccc(N2CCC(N3CCCC(c4cc5ccccc5c(=O)[nH]4)C3)CC2)cn1 (single isomer, unassigned) [Compound 100b]	1 to 10	+++ (+++ indicate a value of at least 100)	0.01 to 0.1	0.01 to 0.1			
CNC(=O)c1ccc(N2CCC(N3CCC(c4nc5c(c(C(F)(F)F)nn5C)c(=O)[nH]4)C3)CC2)cn1 (single isomer, unassigned) [Compound 187b]	< 0.01	− (− indicates a value of less than 10)	< 0.01	< 0.01			
N#Cc1nc(C(=O)NC2CC2)ccc1N1CCC(N2CCC(c3cc4cccc(F)c4c(=O)[nH]3)C2)CC1 (single isomer, unassigned) [Compound 410a]		+++ (+++ indicate a value of at least 100)			0.1 to 1	< 0.01	< 0.01
CNC(=O)c1ccc(N2CCC(N3CCCC(c4cc5ccccc5c(=O)[nH]4)C3)CC2)cn1 (single isomer, unassigned) [Compound 100a]	0.1 to 1	+++ (+++ indicate a value of at least 100)	< 0.01	< 0.01			
CCc1ccc(C2CCN(C3CCN(c4cnc(C(=O)NC)cc4F)CC3)C2)[nH]c1=O (racemic) [Compound 257rac]		+++ (+++ indicate a value of at least 100)			1 to 10	< 0.01	< 0.01
CNC(=O)c1ccc(N2CCC(N3CCC(c4nc5c(c(C(F)(F)F)cn5C)c(=O)[nH]4)C3)CC2)cn1 (single isomer, unassigned) [Compound 170a]	< 0.01	− (− indicates a value of less than 10)	< 0.01	< 0.01			
CNC(=O)c1ccc(N2CCC(N3CCCC(c4ccc(CC(F)(F)F)c(=O)[nH]4)C3)CC2)cn1 (single isomer, unassigned) [Compound 169b]	> 10	+++ (+++ indicate a value of at least 100)	0.01 to 0.1	< 0.01			
CNC(=O)c1ccc(N2CCC(N3CCC(c4cc5cc(O)ccc5c(=O)[nH]4)C3)CC2)cn1 (single isomer, unassigned) [Compound 357b]		+++ (+++ indicate a value of at least 100)			1 to 10	< 0.01	0.01 to 0.1
CNC(=O)c1ccc(OCCN2CCC(c3nc4ccccc4c(=O)[nH]3)C2)cn1 (single isomer, unassigned) [Compound 62b]	1 to 10	− (− indicates a value of less than 10)	0.1 to 1	0.1 to 1			
CNC(=O)c1ccc(N2CCC(N3CCC(c4ccc(CCF)c(=O)[nH]4)C3)CC2)cn1 (racemic) [Compound 231rac]		+++ (+++ indicate a value of at least 100)			1 to 10	< 0.01	< 0.01
CNC(=O)c1ccc(N2CCC(N3CCC(c4cc5cccc(Cl)c5c(=O)[nH]4)C3)CC2)cn1 (single isomer, unassigned) [Compound 128b]	0.01 to 0.1	++ (++ indicates a value of 50 to less than 100)	< 0.01	< 0.01			
NC(=O)c1ccc(N2CCC(N3CCC(c4nc5ccccc5c(=O)[nH]4)C3)CC2)cn1 (single isomer, unassigned) [Compound 123b]	1 to 10	+++ (+++ indicate a value of at least 100)	< 0.01	< 0.01			
O=c1[nH]c(C2CCN(C3CCN(c4nc5ccccc5[nH]4)CC3)C2)cc2ccccc12 (racemic) [Compound 297rac]		− (− indicates a value of less than 10)			0.1 to 1	0.01 to 0.1	0.01 to 0.1
CNC(=O)c1ccc(N2CCC(N3CCC(c4nc5ccccc5c(=O)[nH]4)C3)CC2)nc1 (single isomer, unassigned) [Compound 46b]	0.1 to 1	− (− indicates a value of less than 10)	0.1 to 1	0.1 to 1			
CNC(=O)c1ccc(N2CCC(N3CCC(c4[nH]c(=O)c5ccccc5c4Cl)C3)CC2)cn1 (single isomer, unassigned) [Compound 219b]		+++ (+++ indicate a value of at least 100)			0.1 to 1	< 0.01	< 0.01
CNC(=O)c1ccc(N2CCC(N3CCC(c4cnc(C(F)(F)F)c(=O)[nH]4)C3)CC2)cn1 (single isomer, unassigned) [Compound 279a]		+ (+ indicates a value of 10 to less than 50)			> 10	0.1 to 1	0.1 to 1
CCc1nc(C(=O)NC)ccc1N1CCC(N2CCC(c3ccc(CC)c(=O)[nH]3)C2)CC1 (racemic) [Compound 134rac]	> 10	+++ (+++ indicate a value of at least 100)	< 0.01	< 0.01			
CNC(=O)c1ccc(N2CCC(N3CCC(c4nc5c(c(=O)[nH]4)CCC5)C3)CC2)cn1 (single isomer, unassigned) [Compound 283b]		+++ (+++ indicate a value of at least 100)			1 to 10	< 0.01	< 0.01
CNC(=O)c1ccc(N2CCC(N3CCC(c4cc5cccc(OC)c5c(=O)[nH]4)C3)CC2)cn1 (single isomer, unassigned) [Compound 249a]		− (− indicates a value of less than 10)			> 10	1 to 10	1 to 10
CNC(=O)c1ccc(N2CCC(N3CCC(c4[nH]c(=O)c5cc(F)ccc5c4F)C3)CC2)cn1 (single isomer, unassigned) [Compound 401a]		+++ (+++ indicate a value of at least 100)			0.01 to 0.1	< 0.01	< 0.01
CNC(=O)c1ccc(N2CCC(N3CCC(c4cc5c(Cl)cccc5c(=O)[nH]4)C3)CC2)cn1 (single isomer, unassigned) [Compound 137a]	0.1 to 1	+++ (+++ indicate a value of at least 100)	< 0.01	< 0.01			
CNC(=O)c1cc(N2CCC(N3CCC(c4cc5ccccc5c(=O)[nH]4)C3)CC2)cs1 (racemic) [Compound 296rac]		+ (+ indicates a value of 10 to less than 50)			0.1 to 1	< 0.01	< 0.01
CNC(=O)c1ccc(N2CCC(N3CCC(c4nc5ccccc5c(=O)[nH]4)C3)CC2)c(C)n1 (single isomer, unassigned) [Compound 125a]	1 to 10	+++ (+++ indicate a value of at least 100)	< 0.01	< 0.01			
CNC(=O)c1ccc(N2CCC(N3CCC(c4ccc(CCOC)c(=O)[nH]4)C3)CC2)cn1 (single isomer, unassigned) [Compound 240a]		++ (++ indicates a value of 50 to less than 100)			> 10	0.01 to 0.1	0.01 to 0.1
CNC(=O)c1ccc(N2CCC(N3CCC(c4nc5c(c(C(F)(F)F)cn5C)c(=O)[nH]4)C3)CC2)cn1 (single isomer, unassigned) [Compound 170b]	< 0.01	− (− indicates a value of less than 10)	< 0.01	< 0.01			
CS(=O)(=O)NC(=O)c1ccc(N2CCC(N3CCC(c4cc5ccccc5c(=O)[nH]4)C3)CC2)cn1 (racemic) [Compound 414rac]		++ (++ indicates a value of 50 to less than 100)			0.1 to 1	0.01 to 0.1	0.01 to 0.1
